We go through seven compounds from patent US20150045553A1, “PHENYLTRIAZOLE DERIVATIVE” (TOSHO PHARMACEUTICAL CO., LTD, priority 2011, published 2015).

Data set [1] addresses T1, H3 receptor (Rattus norvegicus, UniProt Q9QYN8).
T1 construct: The frontal cortex dissected from rats was homogenized; from tissue; host or cells: rat frontal cortex membrane fraction
Nature of the data set: Rat H3 receptor binding test (N-α-methyl[3H]histamine, frontal cortex membrane fraction). To be noted: N-α-methyl[3H]histamine 0.75 nM, room temperature, an hour. The procedure: (Test 1: Rat H3 Receptor Binding Test)
The frontal cortex dissected from rats was homogenized with a Teflon (registered trademark) homogenizer in a 50 mM Tris-HCl buffer solution (pH 7.4) containing a protease inhibitor (Complete EDTA-free; Roche Diagnostics) and 5 mM EDTA. The homogenate was centrifuged at 48,000×g for 15 minutes. The supernatant was removed and the pellet was suspended in a 50 mM Tris-HCl buffer solution (pH 7.4) containing 5 mM EDTA and centrifuged at 48,000×g for 15 minutes. The supernatant was removed and the pellet was suspended in a 50 mM Tris-HCl buffer solution (pH 7.4) containing 5 mM EDTA to give a membrane fraction. The membrane fraction (the protein content in the final reaction mixture: 75 μg), N-α-methyl[^3H]histamine (PerkinElmer; final concentration: 0.75 nM) and a test drug were mixed and subjected to reaction at room temperature for an hour. After the end of the reaction, the reaction mixture was suction filtered through a 96-well GF/C filter plate pretreated with 0.3% polyethyleneimine; the filters were then washed five times with a 50 mM Tris-HCl buffer solution (pH 7.4) containing 5 mM EDTA. After the washing, the filters were dried and a scintillator was added to measure the residual radioactivity on the filter with TopCount (PerkinElmer).
The residual radioactivity in the presence of 10 μM thioperamide was taken as indicative of nonspecific binding and the difference from the residual radioactivity in the absence of thioperamide was taken as indicative of specific binding. Each of the test drugs was dissolved and diluted in DMSO at varying concentrations to plot a dose-response curve from the corresponding residual radioactivities; the concentration of test drug that inhibited the specific binding by 50% (IC50) was determined from this curve.

The target of data set [2] is T2, histamine H3 receptor (Rattus norvegicus, UniProt Q9QYN8).
T2 construct: The frontal cortex dissected from rats was homogenized; from tissue; host or cells: rat frontal cortex membrane fraction
T2 sequence (Q9QYN8 whole entry): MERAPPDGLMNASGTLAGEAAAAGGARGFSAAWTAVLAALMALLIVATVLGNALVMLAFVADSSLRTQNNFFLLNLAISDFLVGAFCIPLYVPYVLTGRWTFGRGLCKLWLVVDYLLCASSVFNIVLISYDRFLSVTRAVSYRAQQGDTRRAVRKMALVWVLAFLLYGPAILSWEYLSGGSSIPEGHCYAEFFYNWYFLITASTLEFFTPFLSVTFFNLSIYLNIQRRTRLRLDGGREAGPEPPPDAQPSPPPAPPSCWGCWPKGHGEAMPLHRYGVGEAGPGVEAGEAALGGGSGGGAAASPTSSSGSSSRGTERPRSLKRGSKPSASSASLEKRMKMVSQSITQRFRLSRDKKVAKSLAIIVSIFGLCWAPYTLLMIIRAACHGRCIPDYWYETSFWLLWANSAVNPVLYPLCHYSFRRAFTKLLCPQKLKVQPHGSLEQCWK
Briefly: [35S]GTP-γ-S binding test (R(−)-α-methyl histamine stimulated, frontal cortex membrane fraction). To be noted: R(−)-α-methyl histamine 300 nM, [35S]GTP-γ-S 0.3 nM. Type of data set: biochemical. On the procedure: The frontal cortex dissected from rats was homogenized with a Teflon (registered trademark) homogenizer in a 30 mM Tris-HCl buffer solution (pH 7.4) containing 2.5 mM calcium chloride dihydrate. The homogenate was centrifuged at 48,000×g for 15 minutes. The supernatant was removed and the pellet was suspended in a 30 mM Tris-HCl buffer solution (pH 7.4) containing 2.5 mM calcium chloride dihydrate and centrifuged at 48,000×g for 15 minutes. The supernatant was removed and the pellet was suspended in a 30 mM Tris-HCl buffer solution (pH 7.4) containing 2.5 mM calcium chloride dihydrate and after incubation at 37° C. for 30 minutes, the suspension was centrifuged at 48,000×g for 15 minutes. The resulting supernatant was removed and the pellet was suspended in a 20 mM HEPES buffer solution (pH 7.4) containing 100 mM sodium chloride and 10 mM magnesium chloride to give a membrane fraction. […] After the washing, the filters were dried and a scintillator was added to measure the residual radioactivity on the filter with TopCount (PerkinElmer).
The residual radioactivity in the absence of R(−)-α-methyl histamine was taken as indicative of nonspecific binding and the difference from the residual radioactivity in the presence of R(−)-α-methyl histamine was taken as indicative of specific binding. […]

Data set [3] is described as follows: Rat in vivo pharmacokinetic study (distribution among plasma, brain and cerebrospinal fluid). To be noted: SD rats, single oral administration, 3 mg/kg, an hour after the administration. The procedure:
(Test 3: Rat in vivo pharmacokinetic study)
SD rats were given a single oral administration of Compound No. 8, 19 or 22 at a dose of 3 mg/kg and an hour after the administration, the compound's distribution among the plasma, brain, and cerebrospinal fluid was checked. Quantification was effected by a high-performance liquid chromatography/tandem mass spectrometer API 4000 (LC-MS/MS; AB Sciex).

The target of data set [4] is T3, P-glycoprotein (human MDR1) (Homo sapiens, UniProt P08183).
T3 construct: expressed in transfected cells; host or cells: LLC-GA5-COL300 (LLC-PK1 pig kidney epithelial cells expressing human MDR1)
T3 sequence (P08183 whole entry): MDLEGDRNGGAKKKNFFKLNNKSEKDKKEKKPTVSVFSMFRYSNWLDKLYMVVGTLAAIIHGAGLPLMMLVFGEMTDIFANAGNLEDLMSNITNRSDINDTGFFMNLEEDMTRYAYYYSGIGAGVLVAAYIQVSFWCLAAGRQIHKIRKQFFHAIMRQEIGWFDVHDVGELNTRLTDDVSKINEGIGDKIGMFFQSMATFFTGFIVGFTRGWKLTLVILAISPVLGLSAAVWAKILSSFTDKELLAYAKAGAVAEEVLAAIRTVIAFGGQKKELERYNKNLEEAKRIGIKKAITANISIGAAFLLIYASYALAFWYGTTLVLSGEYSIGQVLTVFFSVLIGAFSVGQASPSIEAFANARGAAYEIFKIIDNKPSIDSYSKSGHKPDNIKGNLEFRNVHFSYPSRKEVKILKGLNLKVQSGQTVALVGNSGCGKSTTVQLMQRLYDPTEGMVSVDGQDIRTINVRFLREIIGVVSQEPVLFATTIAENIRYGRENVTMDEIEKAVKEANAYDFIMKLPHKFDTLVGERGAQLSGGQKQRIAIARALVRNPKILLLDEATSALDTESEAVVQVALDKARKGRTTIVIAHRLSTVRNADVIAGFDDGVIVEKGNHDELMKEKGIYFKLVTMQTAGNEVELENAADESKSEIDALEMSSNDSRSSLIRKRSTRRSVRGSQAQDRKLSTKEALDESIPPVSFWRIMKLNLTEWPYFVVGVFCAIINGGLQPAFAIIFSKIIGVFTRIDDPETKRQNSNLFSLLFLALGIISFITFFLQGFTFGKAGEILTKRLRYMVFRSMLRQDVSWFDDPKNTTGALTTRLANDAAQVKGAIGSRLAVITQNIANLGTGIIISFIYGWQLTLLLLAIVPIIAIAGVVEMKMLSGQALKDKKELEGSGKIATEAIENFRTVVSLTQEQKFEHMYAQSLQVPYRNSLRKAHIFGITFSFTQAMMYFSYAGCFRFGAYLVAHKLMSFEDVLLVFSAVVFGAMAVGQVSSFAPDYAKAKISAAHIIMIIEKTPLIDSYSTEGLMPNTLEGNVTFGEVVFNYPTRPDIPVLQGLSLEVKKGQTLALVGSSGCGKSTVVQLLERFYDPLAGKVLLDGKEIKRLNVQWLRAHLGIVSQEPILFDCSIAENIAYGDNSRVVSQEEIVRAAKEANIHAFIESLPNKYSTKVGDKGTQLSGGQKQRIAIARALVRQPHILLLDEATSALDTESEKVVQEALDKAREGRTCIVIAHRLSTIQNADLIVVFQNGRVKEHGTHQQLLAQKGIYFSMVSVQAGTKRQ
Briefly: P-glycoprotein substrate recognition test (LLC-GA5-COL300 cells, transwell). The data set is classed as in vitro ADME. To be noted: LLC-PK1, ratio of membrane permeation coefficients for apical→basal and basal→apical directions. On the procedure: (Test 4: P-Glycoprotein Substrate Recognition Test)
LLC-GA5-COL300 cells (Human MDR1 expressing system derived from pig kidney derived, cultured renal epithelial cell line LLC-PK1) were cultured on a transwell. Immediately before the test, the culture medium was replaced by Hank's balanced salt solution (HBSS) and the test was then conducted. A solution of an assay compound adjusted to a final concentration of 10 μM was added to the donor side of LLC-GA5-COL300 cells and after the passage of a predetermined period of time, a specified quantity of […] was sampled from the acceptor side. The concentration of the assay compound in the sample was measured by LC-MS/MS. From the amounts of the compound that accumulated and passed into the acceptor side, membrane permeation coefficients (×10^−6 cm/sec) were calculated for apical→basal and basal→apical directions and their relative ratio (efflux ratio) was determined to evaluate the P-glycoprotein substrate recognition.

Where [5] appears, read: brain, read-out: intracerebral concentration.
[6] abbreviates: brain/plasma, read-out: brain/plasma movement ratio.
Setting [7] is: cerebrospinal fluid, read-out: cerebrospinal fluid concentration.
Where [8] appears, read: cerebrospinal fluid/plasma, read-out: cerebrospinal fluid/plasma movement ratio.

The structures appear in SMILES notation. Where two headings read alike, the source gives them in different places.

T1 sequence (Q9QYN8 whole entry): as the sequence (Q9QYN8 whole entry) above

As for `O=C(c1cn(-c2ccc(OC3CCN(C4CCC4)CC3)cc2)nn1)N1CCCC1` [Compound No. 8, (1-{4-[(1-cyclobutylpiperidin-4-yl)oxy]phenyl}-1H-1,2,3-triazol-4-yl)(pyrrolidin-1-yl)methanone], the half-inhibitory concentration (IC50) in data set [1] was 1.8 nM; in data set [2], at most 100 nM. Besides, the figures for the concentration at 1 h in data set [3] (setting [5]) and in data set [3] (setting [7]) were 45.7 ng/g and 2.9 ng/mL, respectively. Besides, the Kp at 1 h stood at 3 in data set [3] (setting [6]) and 0.2 in data set [3] (setting [8]). Moreover, the efflux ratio at 10 μM in data set [4] was 1.

On to `CNC(=O)c1cn(-c2ccc(OC3CCN(C4CCC4)CC3)cc2)nn1` [Compound No. 19, 1-{4-[(1-cyclobutylpiperidin-4-yl)oxy]phenyl}-N-methyl-1H-1,2,3-triazole-4-carboxamide], for which the IC50 in data set [1] came out at 22 nM. Further, the values for the concentration at 1 h in data set [3] (setting [5]) and in data set [3] (setting [7]) were 820 ng/g and 134 ng/mL, respectively. For the same compound, the Kp at 1 h in data set [3] (setting [6]) was determined as 4.4; in data set [3] (setting [8]), 0.7. In addition, the efflux ratio at 10 μM in data set [4] turned out to be 0.7.

`OCc1cn(-c2ccc(OC3CCN(C4CCC4)CC3)cc2)nn1` [Compound No. 22, (1-{4-[(1-cyclobutylpiperidin-4-yl)oxy]phenyl}-1H-1,2,3-triazol-4-yl)methanol] yielded an IC50 in data set [1] of 5.4 nM. Further, the concentration at 1 h in data set [3] (setting [5]) came out at 209 ng/g; in data set [3] (setting [7]), 67.6 ng/mL. In addition, the Kp at 1 h in data set [3] (setting [6]) came out at 1.5; in data set [3] (setting [8]), 0.5. The efflux ratio at 10 μM in data set [4] was found to be 1.1.

On to `O=C(Cc1cn(-c2ccc(OC3CCN(C4CCC4)CC3)cc2)nn1)N1CCC1` [compound 13, 1-(azetidin-1-yl)-2-(1-{4-[(1-cyclobutylpiperidin-4-yl)oxy]phenyl}-1H-1,2,3-triazol-4-yl)ethanone], for which the IC50 in data set [1] stood at 19 nM.

On to `CNC(=O)Cc1cn(-c2ccc(OC3CCN(C4CCC4)CC3)cc2)nn1` [compound 14, 2-(1-{4-[(1-cyclobutylpiperidin-4-yl)oxy]phenyl}-1H-1,2,3-triazol-4-yl)-N-methylacetamide], for which the half-inhibitory concentration (IC50) in data set [1] was 32 nM.

Compound `C[C@@H]1CCCN1CCCOc1ccc(-n2cc(C(=O)N3CCCC3)nn2)cc1` [compound 15, [1-(4-{3-[(2R)-2-methylpyrrolidin-1-yl]propoxy}phenyl)-1H-1,2,3-triazol-4-yl](pyrrolidin-1-yl)methanone] returned a 50% inhibitory concentration (IC50) in data set [1] of 8.9 nM.

Regarding `C[C@@H]1CCCN1CCCOc1ccc(-n2cc(C(=O)N3CCC3)nn2)cc1` [compound 16, azetidin-1-yl[1-(4-{3-[(2R)-2-methylpyrrolidin-1-yl]propoxy}phenyl)-1H-1,2,3-triazol-4-yl]methanone], the half-maximal inhibitory concentration (IC50) in data set [1] is 16 nM.
